Measurements taken from patent US20250214966A1, “Crystalline Salt Form Of A SHP2 Inhibitor” (Array BioPharma Inc., priority 2022, published 2025).
Counter-ions that a name gives are not always drawn.

Assay: TGA/DSC of salts (Table 14)
Assay type: physicochemical
Conditions: 10° C./min
Description: TGA/DSC (Table 14): Approximately, 5-10 mg of material was added into a pre-tared open aluminum pan and loaded into a TA Instruments Discovery SDT 650 Auto—Simultaneous DSC and held at room temperature. The sample was then heated at a rate of 10° C./min from 20° C. (ambient) to 400° C. during which time the change in sample weight was recorded along with the heat flow response (DSC). Nitrogen was used as the sample purge gas, at a flow rate of 200 cm3/min.
DSC (Table 14): Approximately, 1-5 mg of material was weighed into an aluminum DSC pan and sealed nonhermetically with an aluminum lid. The sample pan was then loaded into a TA Instruments Discovery DSC 2500 differential scanning calorimeter equipped with a RC90 cooler. The sample and reference were heated to 310° C. at a scan rate of 10° C./min and the resulting heat flow response monitored. The sample was re-cooled to 20° C. and then reheated again to 205° C. all at 10° C./min. Nitrogen was used as the purge gas, at a flow rate of 50 cm^3/min.

TGA/DSC Melt/degradation: 197.3 °C
SMILES: Nc1nccc(Sc2cnc(N3CCC4(CC3)Cc3ccccc3[C@H]4N)nn2)c1Cl [Example 3, (S)-1′-(6-((2-amino-3-chloropyridin-4-yl)thio)-1,2,4-triazin-3-yl)-1,3-dihydrospiro[indene-2,4′-piperidin]-1-amine Mono Succinate Salt Form 1]
